The text below walks through data of publication PMC7288058, “Modulating the Properties of Fe(III) Macrocyclic MRI Contrast Agents by Appending Sulfonate or Hydroxyl Groups” (Molecules, 2020).

“And” between values parts separate entries of the source, which are not always exact repeats. Equal entries are not always repeated. Where two headings read alike, the source gives them in different places.

The conditions of data set [1]: cited from earlier work; for relaxivity: 4.7 T printed for Fe(EDTA) only.
For data set [2], the target named is T1, human serum albumin (HSA) (Homo sapiens, UniProt P02768).
T1 construct: Albumin from human serum (fatty acid free) was purchased from Sigma-Aldrich; purchased Sigma-Aldrich; host or cells: purified from human serum
T1 sequence (P02768 25-609): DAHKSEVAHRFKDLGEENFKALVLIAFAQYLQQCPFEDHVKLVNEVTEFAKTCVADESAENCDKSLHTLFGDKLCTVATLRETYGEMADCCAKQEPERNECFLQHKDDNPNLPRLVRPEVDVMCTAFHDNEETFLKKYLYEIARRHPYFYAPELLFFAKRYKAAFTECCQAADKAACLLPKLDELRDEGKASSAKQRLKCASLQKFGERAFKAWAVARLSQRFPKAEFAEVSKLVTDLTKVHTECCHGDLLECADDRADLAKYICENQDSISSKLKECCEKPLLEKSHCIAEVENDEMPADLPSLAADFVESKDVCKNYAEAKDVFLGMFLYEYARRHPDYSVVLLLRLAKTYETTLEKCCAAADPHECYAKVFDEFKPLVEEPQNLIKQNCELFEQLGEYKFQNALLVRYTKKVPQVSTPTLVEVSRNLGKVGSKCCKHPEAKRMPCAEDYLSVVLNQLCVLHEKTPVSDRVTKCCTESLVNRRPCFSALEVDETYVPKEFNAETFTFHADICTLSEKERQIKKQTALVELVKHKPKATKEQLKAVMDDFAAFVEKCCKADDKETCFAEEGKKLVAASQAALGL
Kind of data set: Binding to human serum albumin by ultrafiltration / ICP-MS. It counts as in vitro ADME. Particulars: 0.4 mM complex, HSA 4.5% (w/v) (0.7 mM), 20 mM HEPES pH 7.4, 100 mM NaCl, 37 °C, 20 min. How it is done: Binding of the Fe(III) complexes to human serum albumin (HSA) was studied by using ultrafiltration across a MW 5000 cutoff membrane. The solutions containing HEPES buffer (pH 7.4) and salt NaCl were incubated at 37 °C for 20 min. Solutions contained 0.4 mM Fe(III) complex and 4.5 % (w/v) HSA (0.7 mM). The binding percentages were measured by using ICP-MS to analyze the Fe concentration in the unbound complex solutions after HSA incubation (Table 1). The protein binding for Fe(L3)(OH2) was higher (75%) than for Fe(L1)(OH2) (37%) or Fe(L2) (11%).
The molecular weight of 66,435 Da was used to determine the molar concentrations of HSA. Fe(III) complex (0.400 mM) solutions were incubated with 4.5% (w/v) HSA in 0.100 M NaCl and 20.0 mM HEPES buffer (pH 7.4). All solutions were incubated at 37 °C for 20 min [42]. Aliquots (0.300 mL) were placed in ultra-centrifugal filter units with a 5-kDa membrane and centrifuged at 3500× g for 10 min. The filtrates were used to determine Fe concentration from digested unbound Fe(III) complexes by using ICP-MS.

For data set [3], the system named is Balb/c mice. Nature of the data set: Dynamic T1-weighted MRI in mice after tail vein injection (4.7 T). It counts as in vivo. Particulars: healthy mouse, 0.05 mmol/kg, kidneys/blood, up to 45 min. The text has this:
The two new Fe(III) complexes, Fe(L1)(OH2) and […], and the Gd(III) agent, Gd(DOTA), were studied in Balb/c mice on a small animal 4.7-T MRI scanner upon tail vein injection of the agent (Figure S24, Supplementary Materials). […] Biodistribution and pharmacokinetic clearance of the complexes in mice were monitored by using dynamic MRI.
In vivo imaging studies with the Fe(III) complexes were studied on at 4.7 T Bruker preclinical MRI in mice (BABC/cJ, Jackson Laboratory) in accordance with approved Institutional Animal Care and Use Committee (IACUC) protocols. The samples with a concentration of 0.050, 0.100, and 0.200 mmol [Fe]/kg. The Fe(III) complex stock solutions were adjusted to pH 7.2 by addition of meglumine and were injected intravenously via tail vein. MR data were recorded continuously for up to 1 h. Distribution studies and clearance kinetics were studied by using MR data acquired over several time points for up to 1 h, and additionally at 4 h and 24 h. For comparison, The Food and Drug Administration (FDA)-approved MRI contrast agent gadopentetate dimeglumine (Gd(DTPA), Magnevist®) and gadoterate meglumine (Gd(DOTA), Dotarem®) were injected at 50.0 μmol [Gd]/kg into separate group of mice and imaged as above.

On the set-up of data set [4]: method as in PMID 31725934. Particulars: comparison complex, no titration described in this paper; cited from earlier work.
Details of data set [5]: method as in PMID 31725934. As to conditions: 1-octanol/water; cited from earlier work.
On the set-up of data set [6]: method as in PMID 31725934. Particulars: 100 mM HCl, cited from earlier work.
The conditions of data set [7]: 'was reported', reference not given, cited from earlier work.
The test system of data set [8] is Balb/c mice. Also on record: method as in PMID 31725934. As to conditions: cited from earlier work.

For `O=C([O-])CN(CCN(CC(=O)[O-])CC(=O)[O-])CCN(CC(=O)[O-])CC(=O)[O-].[Fe+3]` [Fe(DTPA)], the relaxivity in data set [1] is 0.51 mM⁻¹ s⁻¹.

For the molecule `O=C([O-])CN(CCN(CC(=O)[O-])CC(=O)[O-])CC(=O)[O-].[Fe+3]` [Fe(EDTA)], in data set [1], the relaxivity was 1.4 mM⁻¹ s⁻¹.

As for `C[C@H]([O-])CN1CCN(Cc2ccccc2)CCN(C[C@H](C)O)CC1.O.[Fe+3]` [Fe(L3)(OH2)], the “HSA Binding (%)” value in data set [2] was 75% and 75.1 ± 3.7%. Besides, the “T1-weighted contrast enhancement compared with other agents” value in the data set on Balb/c mice [3] is recorded as “much stronger than that of Fe(L1)(OH2) or Gd(DOTA)”. Besides, in data set [4], the “Log K1 (pKa2)” value is reported as 7.17 ± 0.01. Moreover, in data set [5], the “Log P” value is −0.13. Moreover, in data set [1] (4.7 T), the “r2 4.7 T” value is 4.5 ± 1.1 mM⁻¹ s⁻¹. In addition, in data set [1] (buffer, pH 7.4, 37 °C, 4.7 T), the “r1 4.7 T” value was 2.2 mM⁻¹ s⁻¹ and 2.2 ± 0.30 mM⁻¹ s⁻¹. Moreover, in data set [1] (in HSA, 4.7 T), the “r1 in HSA 4.7 T” value was 2.5 ± 0.10 mM⁻¹ s⁻¹. For the same molecule, in data set [1] (in HSA, 4.7 T), the “r2 in HSA 4.7 T” value was 4.2 ± 0.70 mM⁻¹ s⁻¹. Moreover, the “dissociation in acidic solution” value was 14% in data set [6] (over 24 h) and 38% in data set [6] (over 72 h). In addition, the “electrode potential (E1/2) vs. Ag/AgCl” value is 112 mV in data set [7] (pH 3) and −588 mV in data set [7] (pH 7). Besides, the “electrode potential (E1/2) vs. NHE” value in data set [7] (pH 3) was 400 mV; in data set [7] (pH 7), −300 mV. Also, in the data set on Balb/c mice [8], the “duration of enhanced kidney contrast” value is recorded as “up to four hours”.

As to `CNC[C@H](O)[C@@H](O)[C@H](O)[C@H](O)CO.O=C([O-])CN1CCN(CC(=O)[O-])CCN(CC(=O)O)CCN(CC(=O)[O-])CC1.[Gd+3]` [Gd(DOTA), gadoterate meglumine], in data set [1] (4.7 T), the “r1 4.7 T” value was 2.8 ± 0.10 mM⁻¹ s⁻¹ and the “r2 4.7 T” value is 3.7 ± 0.20 mM⁻¹ s⁻¹.

For `CNC[C@H](O)[C@@H](O)[C@H](O)[C@H](O)CO.CNC[C@H](O)[C@@H](O)[C@H](O)[C@H](O)CO.O=C([O-])CN(CCN(CC(=O)[O-])CC(=O)O)CCN(CC(=O)[O-])CC(=O)O.[Gd+3]` [Gd(DTPA), gadopentetate dimeglumine], the “r1 9.4 T” value in data set [1] (9.4 T) is 2.5 mM⁻¹ s⁻¹. Moreover, the “r1 4.7 T” value in data set [1] (buffer, pH 7.4, 37 °C, 4.7 T) is 3.1 mM⁻¹ s⁻¹. For the same molecule, the “r1 in HSA 4.7 T” value in data set [1] (in HSA, 4.7 T) is 3.2 mM⁻¹ s⁻¹.
